Laboratory results taken from US8143257B2, “Substituted phenols as active agents inhibiting VEGF production” (PTC Therapeutics, Inc., priority 2004, dated 2012).

The compounds below were run on hypoxia-inducible endogenous VEGF expression (assay: Assay to evaluate effect on hypoxia-inducible endogenous VEGF expression (VEGF ELISA, HeLa cells)). Details: HeLa cells cultured 24-48 hours under hypoxic conditions (1% O2, 5% CO2); VEGF in conditioned media by ELISA; read-out: ELISA EC50 (effective concentration required to lower the amount of VEGF translation by 50%).
Format: cell-based
Protocol: Assay to Evaluate Effect on Hypoxia-Inducible Endogenous VEGF Expression
The ability of the compounds of the invention to modulate hypoxia-inducible endogenous VEGF expression is analyzed as follows. VEGF protein levels are monitored by an ELISA assay (R&D Systems). Briefly, HeLa cells are cultured for 24-48 hours under hypoxic conditions (1% O2, 5% CO2, balanced with nitrogen) in the presence or absence of a compound of the invention. The conditioned media is then assayed by ELISA, and the concentration of VEGF is calculated from the standard ELISA curve of each assay.
A dose-response analysis is performed using the ELISA assay and conditions described above. A series of, e.g., seven different concentrations are analyzed. In parallel, a dose-response cytotoxicity assay is performed using Cell Titer Glo (Promega) under the same conditions as the ELISA to ensure that the inhibition of VEGF expression is not due to the cytotoxicity. Dose-response curves are plotted using percentage inhibition versus concentration of the compound, and EC50 and CC50 values are generated for each compound with the maximal inhibition set as 100% and the minimal inhibition as 0%.
The most preferred compounds of the invention are those with μM values of 3 or less.

**Q.** For `CC1CCCC(C)N1C(=O)Oc1ccccc1Br` (centres unmarked) [2,6-Dimethyl-piperidine-1-carboxylic acid 2-bromo-phenyl ester], which EC50 is on record?
**A.** > 30 µM

Same assay, conditions: Homo sapiens, HeLa, read-out: ELISA EC50 (effective concentration required to lower the amount of VEGF translation by 50%)

**Q.** How did the EC50 turn out when `CN1CCN(C(=O)Oc2cc3ccccc3cn2)CC1` [4-Methyl-piperazine-1-carboxylic acid isoquinolin-3-yl ester] was run?
**A.** > 30 µM

**Q.** Which EC50 does the source give for `CN(C)C(=O)Oc1ccc2cc(Br)ccc2c1` [Dimethyl-carbamic acid 6-bromo-naphthalen-2-yl ester] here?
**A.** > 10 µM

**Q.** For `CC1CCN(C(=O)Oc2ccccc2Br)CC1` [4-Methyl-piperidine-1-carboxylic acid 2-bromo-phenyl ester], which EC50 is on record?
**A.** > 30 µM

**Q.** `CN1CCN(C(=O)Oc2cc(Cl)c(Cl)cc2Cl)CC1` [4-Methyl-piperazine-1-carboxylic acid 2,4,5-trichloro-phenyl ester] was tested. Which EC50 did it give?
**A.** > 30 µM

**Q.** For `CC1CC(C)CN(C(=O)Oc2cc3ccccc3cn2)C1` (centres unmarked) [3,5-Dimethyl-piperidine-1-carboxylic acid isoquinolin-3-yl ester], which EC50 is on record?
**A.** > 30 µM

**Q.** `CN(C(=O)Oc1ccc2cc(Br)ccc2c1)c1ccccc1` [Methyl-phenyl-carbamic acid 6-bromo-naphthalen-2-yl ester] was tested. Which EC50 did it give?
**A.** > 10 µM

**Q.** `CN1CCN(C(=O)Oc2c(Cl)cc(Cl)cc2Cl)CC1` [4-Methyl-piperazine-1-carboxylic acid 2,4,6-trichloro-phenyl ester] was tested. Which EC50 did it give?
**A.** 14.2 µM

Same assay, conditions: Homo sapiens; HeLa cells cultured 24-48 hours under hypoxic conditions (1% O2, 5% CO2); VEGF in conditioned media by ELISA; read-out: ELISA EC50 (effective concentration required to lower the amount of VEGF translation by 50%)

**Q.** With `O=C(Nc1ccc2ccccc2c1Br)N1CCC(C(O)(c2ccccc2)c2ccccc2)CC1` [4-(Hydroxy-diphenyl-methyl)-piperidine-1-carboxylic acid (1-bromo-naphthalen-2-yl)-amide] as the compound, how does the EC50 read?
**A.** 0.22 µM

**Q.** With `CC1CCCCN1C(=O)Oc1cc(Cl)c(Cl)cc1Cl` (centres unmarked) [2-Methyl-piperidine-1-carboxylic acid 2,4,5-trichloro-phenyl ester] as the compound, how does the EC50 read?
**A.** 10.6 µM

**Q.** With `CS(=O)(=O)Nc1c(OC(=O)N2CCC(C(O)(c3ccccc3)c3ccccc3)CC2)ccc2ccccc12` [4-(Hydroxy-diphenyl-methyl)-piperidine-1-carboxylic acid 1-methanesulfonylamino-naphthalen-2-yl ester] as the compound, how does the EC50 read?
**A.** > 5 µM

**Q.** Which EC50 does the source give for `CC(=O)c1c(OC(=O)N2CC(C)CC(C)C2)ccc2ccccc12` (centres unmarked) [3,5-Dimethyl-piperidine-1-carboxylic acid 1-acetyl-naphthalen-2-yl ester] here?
**A.** 0.764 µM

**Q.** For `O=C(Oc1cc2ccccc2cn1)N1CCN(c2ccccc2)CC1` [4-Phenyl-piperazine-1-carboxylic acid isoquinolin-3-yl ester], which EC50 is on record?
**A.** > 30 µM

**Q.** How did the EC50 turn out when `CS(=O)(=O)Nc1c(OC(=O)N2CCC(Cc3ccccc3)CC2)ccc2ccccc12` [4-Benzyl-piperidine-1-carboxylic acid 1-methanesulfonylamino-naphthalen-2-yl ester] was run?
**A.** > 5 µM

**Q.** Which EC50 does the source give for `CC1CC(C)CN(C(=O)Nc2ccc3ccccc3c2Cl)C1` (centres unmarked) [3,5-Dimethyl-piperidine-1-carboxylic acid (1-chloro-naphthalen-2-yl)-amide] here?
**A.** > 10 µM

**Q.** How did the EC50 turn out when `CC1CC(C)CN(C(=O)Nc2ccc3ccccc3c2Br)C1` (centres unmarked) [3,5-Dimethyl-piperidine-1-carboxylic acid (1-bromo-naphthalen-2-yl)-amide] was run?
**A.** > 10 µM

**Q.** `COc1ccc2ccc(OC(=O)N3CCN(c4ccc(Cl)cc4)CC3)c(Br)c2c1` [4-(4-Chloro-phenyl)-piperazine-1-carboxylic acid 1-bromo-7-methoxy-naphthalen-2-yl ester] was tested. Which EC50 did it give?
**A.** > 10 µM

**Q.** Which EC50 does the source give for `Cc1ccc2cc(OC(=O)N3CCc4ccccc4C3)ccc2n1` [3,4-Dihydro-1H-isoquinoline-2-carboxylic acid 2-methyl-quinolin-6-yl ester] here?
**A.** > 30 µM

**Q.** How did the EC50 turn out when `O=C(Oc1cc2ccccc2cn1)N1CCc2ccccc2C1` [3,4-Dihydro-1H-isoquinoline-2-carboxylic acid isoquinolin-3-yl ester] was run?
**A.** > 30 µM

**Q.** With `Cc1ccc2cc(OC(=O)N3CCc4ccccc43)ccc2n1` [2,3-Dihydro-indole-1-carboxylic acid 2-methyl-quinolin-6-yl ester] as the compound, how does the EC50 read?
**A.** > 30 µM

**Q.** With `Cc1ccc2cc(OC(=O)N3CCC(Cc4ccccc4)CC3)ccc2n1` [4-Benzyl-piperidine-1-carboxylic acid 2-methyl-quinolin-6-yl ester] as the compound, how does the EC50 read?
**A.** > 30 µM

**Q.** `CC(=O)c1c(OC(=O)N2CCC(Cc3ccccc3)CC2)ccc2ccccc12` [4-Benzyl-piperidine-1-carboxylic acid 1-acetyl-naphthalen-2-yl ester] was tested. Which EC50 did it give?
**A.** 2.6 µM

**Q.** For `CS(=O)(=O)Nc1c(OC(=O)Oc2ccc3ccccc3c2NS(C)(=O)=O)ccc2ccccc12` [Carbonic acid bis-(1-methanesulfonylamino-naphthalen-2-yl) ester], which EC50 is on record?
**A.** 4.3 µM

**Q.** How did the EC50 turn out when `O=C(Oc1cc(Cl)c(Cl)cc1Cl)N1CCCC1` [Pyrrolidine-1-carboxylic acid 2,4,5-trichloro-phenyl ester] was run?
**A.** > 30 µM

**Q.** How did the EC50 turn out when `O=C(Oc1ccc2ccccc2c1Br)N1CCCCC1` [Piperidine-1-carboxylic acid 1-bromo-naphthalen-2-yl ester] was run?
**A.** 0.27 µM

**Q.** With `CC(=O)c1c(OC(=O)N2CCCCC2C)ccc2ccccc12` (centres unmarked) [2-Methyl-piperidine-1-carboxylic acid 1-acetyl-naphthalen-2-yl ester] as the compound, how does the EC50 read?
**A.** > 30 µM

**Q.** `O=C(Oc1ccc2ccccc2c1Br)N1CCOCC1` [Morpholine-4-carboxylic acid 1-bromo-naphthalen-2-yl ester] was tested. Which EC50 did it give?
**A.** 0.999 µM

**Q.** How did the EC50 turn out when `CC1CCN(C(=O)Oc2cc(Cl)c(Cl)cc2Cl)CC1` [4-Methyl-piperidine-1-carboxylic acid 2,4,5-trichloro-phenyl ester] was run?
**A.** 16.2 µM

**Q.** How did the EC50 turn out when `O=C(Oc1cc(Cl)c(Cl)cc1Cl)N1CCCc2ccccc21` [3,4-Dihydro-2H-quinoline-1-carboxylic acid 2,4,5-trichloro-phenyl ester] was run?
**A.** 11.2 µM

**Q.** Which EC50 does the source give for `CC1CC(C)CN(C(=O)Oc2c(Cl)cc(Cl)cc2Cl)C1` (centres unmarked) [3,5-Dimethyl-piperidine-1-carboxylic acid 2,4,6-trichloro-phenyl ester] here?
**A.** > 30 µM

**Q.** How did the EC50 turn out when `CCc1cccc(NC(=O)Oc2ccc3ccccc3c2)c1` [(3-Ethyl-phenyl)-carbamic acid naphthalen-2-yl ester] was run?
**A.** > 30 µM

**Q.** With `CS(=O)(=O)Nc1c(OC(=O)N2CCCCC2)ccc2ccccc12` [Piperidine-1-carboxylic acid 1-methanesulfonylamino-naphthalen-2-yl ester] as the compound, how does the EC50 read?
**A.** > 5 µM
